# Results published in US20040077624A1, “Novel combination” (Pfizer Inc., priority 2002, published 2004).
# Test system: spontaneously hypertensive rat (SHR)
# Test: Animal study: haemodynamic parameters in spontaneously hypertensive rats under continuous infusion
# Assay type: in vivo
# Conditions: male SHR; continuous infusion 0.4 mL/h over 4 days; enalapril 7.5 μg/mL, PDE5 inhibitor 200 μg/mL; difference from the vehicle response
# Protocol: The spontaneously hypertensive rat (SHR) is a widely used model of human hypertension. Male SHRs (20-22 weeks old) were instrumented with Doppler flow probes for the measurement of mesenteric, hindquarters and renal blood flow, aortic blood pressure and heart rate according to published methods (Gardiner, S M et al.; Br. J. Pharmacol. 132(8), 1625-1629, 2001).
# Solutions of enalapril (7.5 μg/mL), PDE5 inhibitor (200μg/mL) and a combination of enalapril and PDE5 inhibitor (7.5μg/mL+200 μg/mL) were infused at a rate of 0.4 mL/h throughout the experimental period. Control animals received compound vehicle; isotonic saline adjusted to pH 4 with hydrochloric acid.
# Baseline haemodynamic parameters were recorded. Animals (n=7 or 8/group) were randomised then treated with the drug solution by continuous infusion over 4 days. Changes in haemodynamic parameters were monitored during the study period for 7h on each day.
Compound,Change in aortic conductance,Change in mesenteric conductance,Change in renal conductance,Overall change in mean BP
"CCOC(=O)[C@H](CCc1ccccc1)N[C@@H](C)C(=O)N1CCC[C@H]1C(=O)O [Enalapril, enalapril]",+3.7%,+22.4%,+14.2%,−2.4 mmHg
"CCc1c2nc(-c3cc(S(=O)(=O)N4CCN(CC)CC4)cnc3OCCOC)[nH]c(=O)c2nn1Cc1ccccn1 [PDE5 inhibitor, 3-ethyl-5-[5-(4-ethylpiperazin-1-ylsulphonyl)-2-(2-methoxyethoxy)pyridin-3-yl]-2-(pyridin-2-yl)methyl-2,6-dihydro-7H-pyrazolo[4,3-d]pyrimidin-7-one]",+19.8%,+22.1%,−0.8%,−12.1 mmHg
